Test results from patent US20240308992A1 (Biopolar Youtang(Guangdong) Pharmaceutical Co., Ltd., priority 2021, published 2024).
Structures can show the parent of a compound that is named as a salt.

Target: T1, Drak2 (Homo sapiens, UniProt O94768)
T1 sequence (O94768 1-372): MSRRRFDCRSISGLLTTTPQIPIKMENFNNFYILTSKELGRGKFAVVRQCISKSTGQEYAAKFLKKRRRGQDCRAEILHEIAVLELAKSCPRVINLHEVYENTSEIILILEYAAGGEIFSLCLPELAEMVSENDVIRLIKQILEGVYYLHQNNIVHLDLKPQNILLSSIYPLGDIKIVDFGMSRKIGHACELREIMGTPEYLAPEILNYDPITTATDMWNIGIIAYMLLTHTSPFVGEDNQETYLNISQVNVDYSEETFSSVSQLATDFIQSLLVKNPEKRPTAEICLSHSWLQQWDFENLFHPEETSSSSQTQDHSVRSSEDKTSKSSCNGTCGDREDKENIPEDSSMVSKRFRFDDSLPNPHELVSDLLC
Test: Drak2 activity test, ADP-Glo kinase assay (Promega)
Assay type: biochemical
Conditions: inhibition of Drak2 kinase activity, 2 h room temperature, activity range classes, read-out: IC50_Drak2

## O=C(CC1CCC1)Nc1csc(-c2cncc(-c3ccnc4c3ccn4CC(F)(F)F)n2)c1 [Example 215, 2-Cyclobutyl-N-(5-{6-[1-(2,2,2-trifluoroethyl)pyrrolo [2,3-b]pyridin-4-yl]pyrazin-2-yl}thiophen-3-yl) acetamide]
  IC50: 101 to 1000 nM

## CCCCC(=O)Nc1csc(-c2cncc(-c3cn(C)nc3C)n2)c1 [Example 216, N-{5-[6-(1,3-dimethylpyrazol-4-yl)pyrazin-2-yl]thiophen-3-yl}pentanamide]
  IC50: < 10 nM

## CCCCC(=O)Nc1csc(-c2cncc(-c3cncs3)n2)c1 [Example 217, N-{5-[6-(1,3-thiazole-5-yl)pyrazin-2-yl]thiophen-3-yl} pentanamide]
  IC50: 11 to 100 nM

## CCCCC(=O)Nc1csc(-c2cncc(-c3ccc(CCO)s3)n2)c1 [Example 218, N-(5-{6-[5-(2-hydroxyethyl)thiophen-2-yl]pyrazin 2-yl}thiophen-3-yl) pentanamide]
  IC50: 11 to 100 nM

## CCCCC(=O)Nc1csc(-c2cncc(-c3cccs3)n2)c1 [Example 219, N-{5-[6-(thiophen-2-yl)pyrazin-2-yl]thiophen-3-yl}pentanamide]
  IC50: 11 to 100 nM

## CCCCC(=O)Nc1csc(-c2cncc(-c3ccco3)n2)c1 [Example 220, N-{5-[6-(furyl-2-yl)pyrazin-2-yl]thiophen-3-yl}pentanamide]
  IC50: 101 to 1000 nM

## CCCCC(=O)Nc1csc(-c2cncc(-c3ccc(OC)c(S(C)(=O)=O)c3)n2)c1 [Example 221]
  IC50: 101 to 1000 nM

## CCCCC(=O)Nc1csc(-c2cncc(-c3ccc(C(=O)OC)s3)n2)c1 [Example 222, methyl 5-(6-(4-pentamidothiophen-2-yl)pyrazin-2-yl) thiophen-2-carboxylate]
  IC50: 101 to 1000 nM

## COc1cc(-c2cncc(-c3nc(NC(=O)CC4CCC4)cs3)n2)ccc1C(=O)N(C)C1CCN(C)CC1 [Example 223, 4-(6-{4-[(2-cyclobutylacetyl)amino]-1,3-thiazole-2-yl}pyrazin-2-yl)-2-methoxy-N-methyl-N-(1-methylhexahydropyridin-4-yl) benzamide]
  IC50: 101 to 1000 nM

## Cn1ccc2c(-c3cncc(-c4cc(NC(=O)CC5CCC5)cs4)n3)ccnc21 [Example 224]
  IC50: 101 to 1000 nM

## CCCCC(=O)Nc1csc(-c2cncc(-c3ccc(OC)c(OC)c3)n2)c1 [Example A1, N-(5-(6-(3,4-dimethoxyphenyl)pyrazin-2-yl)thiophen-3-yl)pentanamide]
  IC50: 101 to 1000 nM

## COc1ccc(-c2cncc(-c3cc(N)cs3)n2)cc1OC [Example A2, 5-(6-(3,4-dimethoxyphenyl)pyrazin-2-yl)thiophen-3-amine hydrochloride]
  IC50: 1000 to 10000 nM

## COc1ccc(-c2cncc(-c3cc(NC(C)=O)cs3)n2)cc1OC [Example A3, N-(5-(6-(3,4-dimethoxyphenyl)pyrazin-2-yl)thiophen-3-yl)acetamide]
  IC50: 101 to 1000 nM

## COc1ccc(-c2cncc(-c3cc(NC(=O)C(C)C)cs3)n2)cc1OC [Example A4, N-(5-(6-(3,4-dimethoxyphenyl)pyrazin-2-yl)thiophen-3-yl)isobutyramide]
  IC50: 101 to 1000 nM

## COc1ccc(-c2cncc(-c3cc(NC(=O)C(C)(C)C)cs3)n2)cc1OC [Example A5, N-(5-(6-(3,4-dimethoxyphenyl)pyrazin-2-yl)thiophen-3-yl)pivalamide]
  IC50: 101 to 1000 nM

## COc1ccc(-c2cncc(-c3cc(NC(=O)C4CC4)cs3)n2)cc1OC [Example A6, N-(5-(6-(3,4-dimethoxyphenyl)pyrazin-2-yl)thiophen-3-yl)cyclopropanecarboxamide]
  IC50: 101 to 1000 nM

## COc1ccc(-c2cncc(-c3cc(NC(=O)C4CCC4)cs3)n2)cc1OC [Example A7, N-(5-(6-(3,4-dimethoxyphenyl)pyrazin-2-yl)thiophen-3-yl)cyclobutanecarboxamide]
  IC50: 101 to 1000 nM

## COc1ccc(-c2cncc(-c3cc(NC(=O)C4CCCC4)cs3)n2)cc1OC [Example A8, N-(5-(6-(3,4-dimethoxyphenyl)pyrazin-2-yl)thiophen-3-yl)cyclopentanecarboxamide]
  IC50: 101 to 1000 nM

## COc1ccc(-c2cncc(-c3cc(NC(=O)C4CCCCC4)cs3)n2)cc1OC [Example A9, N-(5-(6-(3,4-dimethoxyphenyl)pyrazin-2-yl)thiophen-3-yl)cyclohexanecarboxamide]
  IC50: 101 to 1000 nM

## COc1ccc(-c2cncc(-c3cc(NC(=O)c4ccccc4)cs3)n2)cc1OC [Example A10, N-(5-(6-(3,4-dimethoxyphenyl)pyrazin-2-yl)thiophen-3-yl)benzamide]
  IC50: 1000 to 10000 nM

## CCCCC(=O)Nc1csc(-c2nccc(-c3ccc(OC)c(OC)c3)n2)c1 [Example A11, N-(5-(4-(3,4-dimethoxyphenyl)pyrimidin-2-yl)thiophen-3-yl)pentanamide]
  IC50: > 10000 nM

## CCCCC(=O)Nc1csc(-c2cncc(-c3cccc(OC)c3OC)n2)c1 [Example A12, N-(5-(6-(2,3-dimethoxyphenyl)pyrazin-2-yl)thiophen-3-yl)pentanamide]
  IC50: 1000 to 10000 nM

## CCCCC(=O)Nc1csc(-c2cncc(-c3cc(OC)ccc3OC)n2)c1 [Example A13, N-(5-(6-(2,5-dimethoxyphenyl)pyrazin-2-yl)thiophen-3-yl)pentanamide]
  IC50: 101 to 1000 nM

## COc1ccc(OC)c(-c2cncc(-c3cc(NC(=O)C4CCC4)cs3)n2)c1 [Example A14, N-(5-(6-(2,5-dimethoxyphenyl)pyrazin-2-yl)thiophen-3-yl)cyclobutanecarboxamide]
  IC50: 1000 to 10000 nM

## COc1cc(-c2cncc(-c3cc(NC(=O)C4CCC4)cs3)n2)ccc1Cl [Example A15, N-(5-(6-(4-chloro-3-methoxyphenyl)pyrazin-2-yl)thiophen-3-yl)cyclobutanecarboxamide]
  IC50: 101 to 1000 nM

## CCCCC(=O)Nc1csc(-c2cncc(-c3ccc(Cl)c(OC)c3)n2)c1 [Example A16, N-(5-(6-(4-chloro-3-methoxyphenyl)pyrazin-2-yl)thiophen-3-yl)pentanamide]
  IC50: 1000 to 10000 nM

## COc1ccc(-c2cncc(-c3cc(NC(=O)C4CCC4)cs3)n2)cc1Cl [Example A17, N-(5-(6-(3-chloro-4-methoxyphenyl)pyrazin-2-yl)thiophen-3-yl)cyclobutanecarboxamide]
  IC50: 101 to 1000 nM

## CCCCC(=O)Nc1csc(-c2cncc(-c3cc(OC)cc(OC)c3)n2)c1 [Example A18, N-(5-(6-(3,5-dimethoxyphenyl)pyrazin-2-yl)thiophen-3-yl)pentanamide]
  IC50: 101 to 1000 nM

## CCCCC(=O)Nc1csc(-c2cncc(-c3ccc(OC)c(Cl)c3)n2)c1 [Example A19, N-(5-(6-(3-chloro-4-methoxyphenyl)pyrazin-2-yl)thiophen-3-yl)pentanamide]
  IC50: 101 to 1000 nM

## CCCCC(=O)Nc1csc(-c2cncc(-c3ccc(C#N)c(OC)c3)n2)c1 [Example A20, N-(5-(6-(4-cyano-3-methoxyphenyl)pyrazin-2-yl)thiophen-3-yl)pentanamide]
  IC50: 101 to 1000 nM

## CCCCC(=O)Nc1csc(-c2cncc(-c3ccc(OC)c(C#N)c3)n2)c1 [Example A21, N-(5-(6-(3-cyano-4-methoxyphenyl)pyrazin-2-yl)thiophen-3-yl)pentanamide]
  IC50: 101 to 1000 nM

## COc1ccc(-c2cncc(-c3cc(NC(=O)C4CCC4)cs3)n2)cc1C#N [Example A22, N-(5-(6-(3-cyano-4-methoxyphenyl)pyrazin-2-yl)thiophen-3-yl)cyclobutanecarboxamide]
  IC50: 101 to 1000 nM

## CCCCC(=O)Nc1csc(-c2cncc(-c3ccc4c(c3)OCO4)n2)c1 [Example A23, N-(5-(6-(benzo[d][1,3]dioxol-5-yl)pyrazin-2-yl)thiophen-3-yl)pentanamide]
  IC50: 101 to 1000 nM
